The source of these data is patent US20250282768A1 (Janssen Pharmaceutica NV, priority 2022, published 2025).

Bounds are passed on as bounds.

The subject of the experiment is p-IKKa levels in L363 (NIK translocated multiple myeloma) cells. In words: Assay 2: Effect of compounds on p-IKKa levels in L363 (NIK translocated multiple myeloma) cells. The experiment is classed as cell-based. As to conditions: Homo sapiens, L-363, 6 h, read-out: Assay 2 IC50 (nM), p-IKKa (Ser 176/180) in BAFF stimulated L363 cells with MG132, 6 h; average if tested more than once. In short, it runs like this: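 Read-out is p-IKKa Ser176/180 by AlphaLISA SureFire in lysates. Cells were BAFF-primed (250 ng/ml) overnight or left unstimulated, then exposed 6 h at 37 °C to compound with MG132 (10 μM), 0.3% DMSO. IC50 from sigmoidal curve fit, normalized between stimulated and unstimulated controls.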
For the molecule `CN1CC[C@@](O)(c2cc(-c3cccc(-c4ccnc(Nc5cc6n(n5)CC5(CC5)C6)n4)n3)no2)C1=O` [Example 300, (R)-3-(3-(6-(2-((4′H,6′H-Spiro[cyclopropane-1,5′-pyrrolo[1,2-b]pyrazol]-2′-yl)amino)pyrimidin-4-yl)pyridin-2-yl)isoxazol-5-yl)-3-hydroxy-1-methylpyrrolidin-2-one], the IC50 is less than 50 nM.

Regarding `[2H]c1cc(-c2cccc(-n3cc([C@]4(O)CCN(C)C4=O)nn3)n2)nc(Nc2ccn(CC)n2)n1` [Example 301, (R)-3-(1-(6-(2-((1-Ethyl-1H-pyrazol-3-yl)amino)pyrimidin-4-yl-6-d)pyridin-2-yl)-1H-1,2,3-triazol-4-yl)-3-hydroxy-1-methylpyrrolidin-2-one], the IC50 was less than 50 nM. For the molecule `CN1CC[C@@](O)(c2cc(-c3cccc(-c4ccnc(Nc5cnn6c5COCC6)n4)n3)no2)C1=O` [Example 302, (R)-3-(3-(6-(2-((6,7-Dihydro-4H-pyrazolo[5,1-c][1,4]oxazin-3-yl)amino)pyrimidin-4-yl)pyridin-2-yl)isoxazol-5-yl)-3-hydroxy-1-methylpyrrolidin-2-one], the IC50 is less than 50 nM.

Consider `CN1CC[C@@](O)(c2cc(-c3cccc(-c4ccnc(Nc5cnc(CO)cn5)n4)n3)no2)C1=O` [Example 303, (R)-3-Hydroxy-3-(3-(6-(2-((5-(hydroxymethyl)pyrazin-2-yl)amino)pyrimidin-4-yl)pyridin-2-yl)isoxazol-5-yl)-1-methylpyrrolidin-2-one], for which the IC50 lay in the range of 50 to 500 nM. `CN1CC[C@@](O)(c2cc(-c3cccc(-c4ccnc(Nc5nnc(C6CC6)o5)n4)n3)no2)C1=O` [Example 304, (R)-3-(3-(6-(2-((5-Cyclopropyl-1,3,4-oxadiazol-2-yl)amino)pyrimidin-4-yl)pyridin-2-yl)isoxazol-5-yl)-3-hydroxy-1-methylpyrrolidin-2-one]: the IC50 was 50 to 500 nM. As for `CN1CC[C@@](O)(c2cc(-c3cccc(-c4ccnc(Nc5ncn(CC(F)(F)F)n5)n4)n3)no2)C1=O` [Example 305, (R)-3-Hydroxy-1-methyl-3-(3-(6-(2-((1-(2,2,2-trifluoroethyl)-1H-1,2,4-triazol-3-yl)amino)pyrimidin-4-yl)pyridin-2-yl)isoxazol-5-yl)pyrrolidin-2-one], the IC50 is 50 to 500 nM. Next, `CN(C)CCn1nccc1Nc1nccc(-c2cccc(-c3cc([C@]4(O)CCN(C)C4=O)on3)n2)n1` [Example 306, (R)-3-(3-(6-(2-((1-(2-(Dimethylamino)ethyl)-1H-pyrazol-5-yl)amino)pyrimidin-4-yl)pyridin-2-yl)isoxazol-5-yl)-3-hydroxy-1-methylpyrrolidin-2-one]: greater than 500 nM. Next, `CN1CC[C@@](O)(c2cc(-c3cccc(-c4ccnc(Nc5ccc(-c6nncn6C)cn5)n4)n3)no2)C1=O` [Example 308, (R)-3-Hydroxy-1-methyl-3-(3-(6-(2-((5-(4-methyl-4H-1,2,4-triazol-3-yl)pyridin-2-yl)amino)pyrimidin-4-yl)pyridin-2-yl)isoxazol-5-yl)pyrrolidin-2-one]: 50 to 500 nM; `Cc1nc(-c2ccc(Nc3nccc(-c4cccc(-c5cc([C@]6(O)CCN(C)C6=O)on5)n4)n3)nc2)n(C)n1` [Example 309, (R)-3-(3-(6-(2-((5-(1,3-Dimethyl-1H-1,2,4-triazol-5-yl)pyridin-2-yl)amino)pyrimidin-4-yl)pyridin-2-yl)isoxazol-5-yl)-3-hydroxy-1-methylpyrrolidin-2-one]: greater than 500 nM; `CN1CC[C@@](O)(c2cc(-c3cccc(-c4ccnc(Nc5ncnc6c5COCC6)n4)n3)no2)C1=O` [Example 310, (R)-3-(3-(6-(2-((7,8-Dihydro-5H-pyrano[4,3-d]pyrimidin-4-yl)amino)pyrimidin-4-yl)pyridin-2-yl)isoxazol-5-yl)-3-hydroxy-1-methylpyrrolidin-2-one]: greater than 500 nM. Turning to `COCn1ncc(Nc2nccc(-c3cccc(-c4cc([C@]5(O)CCN(C)C5=O)on4)n3)n2)n1` [Example 311, (R)-3-Hydroxy-3-(3-(6-(2-((2-(methoxymethyl)-2H-1,2,3-triazol-4-yl)amino)pyrimidin-4-yl)pyridin-2-yl)isoxazol-5-yl)-1-methylpyrrolidin-2-one], the IC50 is less than 50 nM. The figure for `CN1CC[C@@](O)(c2cc(-c3cccc(-c4ccnc(Nc5ccn(C6COC6)n5)n4)n3)no2)C1=O` [Example 312, (R)-3-Hydroxy-1-methyl-3-(3-(6-(2-((1-(oxetan-3-yl)-1H-pyrazol-3-yl)amino)pyrimidin-4-yl)pyridin-2-yl)isoxazol-5-yl)pyrrolidin-2-one] is less than 50 nM.

`CN1CC[C@@](O)(c2cc(-c3cccc(-c4ccnc(Nc5cnc6n5CCOC6)n4)n3)no2)C1=O` [Example 313, (R)-3-(3-(6-(2-((5,6-Dihydro-8H-imidazo[2,1-c][1,4]oxazin-3-yl)amino)pyrimidin-4-yl)pyridin-2-yl)isoxazol-5-yl)-3-hydroxy-1-methylpyrrolidin-2-one]: the IC50 is greater than 500 nM. As to `CN1CC[C@@](O)(c2cc(-c3cccc(-c4ccnc(Nc5cnc6n5CCOCC6)n4)n3)no2)C1=O` [Example 314, (R)-3-Hydroxy-1-methyl-3-(3-(6-(2-((5,6,8,9-tetrahydroimidazo[1,2-d][1,4]oxazepin-3-yl)amino)pyrimidin-4-yl)pyridin-2-yl)isoxazol-5-yl)pyrrolidin-2-one], the IC50 was greater than 500 nM. Next, `CN1CC[C@@](O)(c2cc(-c3cccc(-c4ccnc(Nc5ncn6ccnc6n5)n4)n3)no2)C1=O` [Example 315, (R)-3-Hydroxy-3-(3-(6-(2-(imidazo[1,2-a][1,3,5]triazin-2-ylamino)pyrimidin-4-yl)pyridin-2-yl)isoxazol-5-yl)-1-methylpyrrolidin-2-one]: greater than 500 nM. Turning to `CN1CC[C@@](O)(c2cc(-c3cccc(-c4ccnc(Nc5ncc(CO)cn5)n4)n3)no2)C1=O` [Example 316, (R)-3-Hydroxy-3-(3-(6-(2-((5-(hydroxymethyl)pyrimidin-2-yl)amino)pyrimidin-4-yl)pyridin-2-yl)isoxazol-5-yl)-1-methylpyrrolidin-2-one], the IC50 was greater than 500 nM.

Consider `COc1cccnc1Nc1nccc(-c2cccc(-c3cc([C@]4(O)CCN(C)C4=O)on3)n2)n1` [Example 317, (R)-3-Hydroxy-3-(3-(6-(2-((3-methoxypyridin-2-yl)amino)pyrimidin-4-yl)pyridin-2-yl)isoxazol-5-yl)-1-methylpyrrolidin-2-one], for which the IC50 was greater than 500 nM. Turning to `CN1CC[C@@](O)(c2cc(-c3cccc(-c4ccnc(Nc5ncn(C)n5)n4)n3)no2)C1=O` [Example 318, (R)-3-Hydroxy-1-methyl-3-(3-(6-(2-((1-methyl-1H-1,2,4-triazol-3-yl)amino)pyrimidin-4-yl)pyridin-2-yl)isoxazol-5-yl)pyrrolidin-2-one], the IC50 is greater than 500 nM.

For the molecule `Cc1nnc(Nc2nccc(-c3cccc(-c4cc([C@]5(O)CCN(C)C5=O)on4)n3)n2)o1` [Example 319, (R)-3-Hydroxy-1-methyl-3-(3-(6-(2-((5-methyl-1,3,4-oxadiazol-2-yl)amino)pyrimidin-4-yl)pyridin-2-yl)isoxazol-5-yl)pyrrolidin-2-one], the IC50 was greater than 500 nM. The figure for `CN1CC[C@@](O)(c2cc(-c3cccc(-c4ccnc(Nc5ccnc(N6CCOCC6)c5)n4)n3)no2)C1=O` [Example 320] is less than 50 nM. Regarding `CN1CC[C@@](O)(c2cc(-c3cccc(-c4ccnc(Nc5nnnn5C)n4)n3)no2)C1=O` [Example 321, (R)-3-Hydroxy-1-methyl-3-(3-(6-(2-((1-methyl-1H-tetrazol-5-yl)amino)pyrimidin-4-yl)pyridin-2-yl)isoxazol-5-yl)pyrrolidin-2-one], the IC50 is greater than 500 nM. Next, `COc1cccc(Nc2nccc(-c3cccc(-c4cc([C@]5(O)CCN(C)C5=O)on4)n3)n2)n1` [Example 322, (R)-3-Hydroxy-3-(3-(6-(2-((6-methoxypyridin-2-yl)amino)pyrimidin-4-yl)pyridin-2-yl)isoxazol-5-yl)-1-methylpyrrolidin-2-one]: 50 to 500 nM; `CN1CC[C@@](O)(c2cc(-c3cccc(-c4ccnc(Nc5cn(C)cn5)n4)n3)no2)C1=O` [Example 323, (R)-3-Hydroxy-1-methyl-3-(3-(6-(2-((1-methyl-1H-imidazol-4-yl)amino)pyrimidin-4-yl)pyridin-2-yl)isoxazol-5-yl)pyrrolidin-2-one]: 50 to 500 nM. Regarding `CN1CC[C@@](O)(c2cc(-c3cccc(-c4ccnc(Nc5nnc(C(F)F)o5)n4)n3)no2)C1=O` [Example 324, (R)-3-(3-(6-(2-((5-(Difluoromethyl)-1,3,4-oxadiazol-2-yl)amino)pyrimidin-4-yl)pyridin-2-yl)isoxazol-5-yl)-3-hydroxy-1-methylpyrrolidin-2-one], the IC50 is greater than 500 nM. The figure for `CN1CC[C@@](O)(c2cn(-c3cccc(-c4ccnc(Nc5cn(C)nc5F)n4)n3)nn2)C1=O` [Example 325, (R)-3-(1-(6-(2-((3-Fluoro-1-methyl-1H-pyrazol-4-yl)amino)pyrimidin-4-yl)pyridin-2-yl)-1H-1,2,3-triazol-4-yl)-3-hydroxy-1-methylpyrrolidin-2-one] is 50 to 500 nM.

Regarding `Cc1nccc(Nc2nccc(-c3cccc(-n4cc([C@]5(O)CCN(C)C5=O)nn4)n3)n2)c1F` [Example 326, (R)-3-(1-(6-(2-((3-Fluoro-2-methylpyridin-4-yl)amino)pyrimidin-4-yl)pyridin-2-yl)-1H-1,2,3-triazol-4-yl)-3-hydroxy-1-methylpyrrolidin-2-one], the IC50 is less than 50 nM.

For the molecule `CN1CC[C@@](O)(c2cn(-c3cccc(-c4ccnc(Nc5cnn(C)c5Cl)n4)n3)nn2)C1=O` [Example 327, (R)-3-(1-(6-(2-((5-Chloro-1-methyl-1H-pyrazol-4-yl)amino)pyrimidin-4-yl)pyridin-2-yl)-1H-1,2,3-triazol-4-yl)-3-hydroxy-1-methylpyrrolidin-2-one], the IC50 was less than 50 nM.
